Values quoted from earlier work, collected in US10449245B2 (priority 2014, dated 2019).

System: HIV-specific T cells
Details: IMiD present during stimulation with dendritic cells presenting Gag- or Nef-specific peptides; cited from earlier work

**Q.** Which “function of T-cells after in vitro stimulation” value does the source give for `Nc1cccc2c1CN(C1CCC(=O)NC1=O)C2=O` (centres unmarked) [Lenalidomide] here?
**A.** The value was “a number of improvements in the function of the T-cells”.

**Q.** With `Nc1cccc2c1C(=O)N(C1CCC(=O)NC1=O)C2=O` (centres unmarked) [pomalidomide] as the compound, how does the “function of T-cells after in vitro stimulation” value read?
**A.** Its value is “a number of improvements in the function of the T-cells”.
